{"source": "patent US20020115704A1", "about": "“Treatment method” (priority 2000, published 2002)", "key": {"[1]": {"tested_on": "5-HT1A receptors or 5-HT1D receptors", "details": "cited from earlier work"}, "menopausal women": {"tested_on": "menopausal women", "details": "oral; cited from earlier work"}, "males [2]": {"tested_on": "males", "details": "apomorphine: human males; cited from earlier work"}, "female Macaca arctoides": {"tested_on": "female Macaca arctoides", "experiment": "Sexual behaviour of the male with the drug-treated female Macaca arctoides", "format": "in vivo", "details": "for Sexual desire and arousal in female primates: conclusion from the male's behaviour with the treated female; for Copulations with ejaculation (FIG. 1A) / Copulations without ejaculation (FIG. 1B) / Total number of copulations, with and without ejaculation pooled (FIG. 1C) / Number of short time mounts (FIG. 1D): i.m. to the female, n=4, vs saline; for Copulations with ejaculation (FIG. 1A) / Copulations without ejaculation (FIG. 1B): atipamezole 0.03 and 0.3 mg/kg, apomorphine 0.125 and 0.25 mg/kg, or combinations, 20 min observation; for Total number of copulations, with and without ejaculation pooled (FIG. 1C) / Number of short time mounts (FIG. 1D): same doses; for Total number of copulations, with and without ejaculation pooled (FIG. 1C): atipamezole F2,11=5.00, p=0.05; for Number of short time mounts (FIG. 1D): atipamezole F2,11=7.55, p<0.03", "procedure": "This example investigated whether the administration a specific alpha2-adrenoceptor antagonist, atipamezole, a dopamine agonist, apomorphine, or their combination into a female Macaca arctoides produces changes in the sexual behaviour of the female with a male.\nThe experiments were performed using four female and two male Macaca arctoides monkeys born in captivity. The ages of the adult females were 13 and 16 years and those of the aged females 23 and 25 years. The ages of the males were 14 and 23 years. The females were sexually mature and with normal hormonal cycles.\nDuring the testing period, the monkeys were housed individually in stainless-steel cages. They were fed commercially available food twice each day, and water was always available. Females were weighed before the first injection of each series and doses were adjusted accordingly when appropriate. Sexual behaviour was tested between 11.00 and 16.00 h. The same test cage and testing procedure were used in all experiments. One experienced observer, blind to the treatment, viewed the animals at a distance of about 0.5 m from the cage.\nDuring the testing period, the couple being tested was housed in a single case (0.6×0.9×1.2 m) with two compartments. During the first 10 min of each session, a sliding wall made of steel bars separated the male and the female in the test cage. The monkeys could see and touch each other through this wall. Between the testing sessions, the female being tested was housed in another room with no visual contact with the male.\nAfter i.m. administration of the studied compounds to the female, the observation of the sexual behaviour began as described subsequently. Ten minutes after the end of drug administration, the sliding wall between the male and the female was pulled away and the observation of sexual activity continued for the next 20 min. At the end of the observation period, the sliding wall was replaced and the female was taken to her home cage in another room.\nThe occurrence and duration of the following parameters were observed: perineal investigation, mounting, masturbation, ejaculation, male and female grooming, eye contact, tying, yawning, self-scratching, direct male aggression towards the female and teeth grinding. A single mount leading to ejaculation was counted as ejaculation. A single mount not leading to ejaculation was counted as a short term mount. If the interval between mounts was >30 s, the mount was considered to be separate. In Macaca arctoides, male ejaculation reached in copulation or masturbation can be recognised clearly on the basis of its stereotypic manifestations as described in Linnankoski et al. (Arch. Sexual Behav. 10:207-222, 1981).\nThe experiments were performed once every other day for three days/week. In each female, the effect of atipamezole (Orion Pharma, Turku, Finland) alone (0.03 and 0.3 mg/kg and saline control) was tested during the first two weeks. The effect of apomorphine (Sigma, St.Louis, Mo.) alone (0.125 and 0.25 mg/kg and saline control) was tested during the next two weeks. The combination of a low dose of atipamezole (0.03 mg/kg) with a low dose apomorphine (0.125 mg/kg), a high dose of atipamezole (0.3 mg/kg) with a high dose of apomorphine (0.25 mg/kg), or saline control (two saline injections) was studied during the last two weeks. Owing to the difference in their pharmacokinetic properties, atipamezole (or its saline control) was always administered 10 min before testing session and apomorphine (or its saline control) 20 min before the testing session. The order of testing various doses of drugs and saline control was randomised within each two week testing period. Each dose or the combination was tested twice and the average result of these two sessions was used in final calculations. The experiments were performed in a double-blind fashion."}, "[3]": {"tested_on": "ovariectomised, oestrogen+progesterone-primed female rats", "details": "cited from earlier work"}, "males [4]": {"tested_on": "males", "details": "cited from earlier work"}, "α2-adrenoceptor": {"tested_on": "α2-adrenoceptor", "details": "cited from earlier work"}, "[5]": {"tested_on": "dopaminergic, GABAergic, serotonergic (such as 5-HT1A) receptors", "details": "cited from earlier work"}, "postmenopausal women": {"tested_on": "postmenopausal women", "details": "cited from earlier work"}}}
{"molecule": "CC1c2ccccc2CN1CC1=NCCN1", "note": "(centres unmarked) [BRL 44408]", "values": [{"measurement": "Affinity on 5-HT1A receptors or 5-HT1D receptors", "setting": "[1]", "result": "have affinity"}]}
{"molecule": "COc1ccccc1N1CCN(CCN2C(=O)c3ccccc3C(C)(C)C2=O)CC1", "note": "[ARC 239]", "values": [{"measurement": "Affinity on 5-HT1A receptors or 5-HT1D receptors", "setting": "[1]", "result": "have affinity"}]}
{"molecule": "Cc1ccc(N(CC2=NCCN2)c2cccc(O)c2)cc1", "note": "[phentolamine]", "values": [{"measurement": "Sexual arousal, such as self-reported lubrication", "setting": "menopausal women", "result": "mild improvement"}, {"measurement": "Sexual arousal i.e. erections", "setting": "males [2]", "result": "increase"}]}
{"molecule": "CN1CCc2cccc3c2[C@H]1Cc1ccc(O)c(O)c1-3", "note": "[apomorphine]", "values": [{"measurement": "Sexual desire and arousal in female primates", "setting": "female Macaca arctoides", "result": "ineffective"}, {"measurement": "Copulations with ejaculation (FIG. 1A)", "setting": "female Macaca arctoides", "result": "failed to be statistically significant"}, {"measurement": "Copulations without ejaculation (FIG. 1B)", "setting": "female Macaca arctoides", "result": "failed to be statistically significant"}, {"measurement": "Total number of copulations, with and without ejaculation pooled (FIG. 1C)", "setting": "female Macaca arctoides", "result": "not significant"}, {"measurement": "Number of short time mounts (FIG. 1D)", "setting": "female Macaca arctoides", "result": "no significant effect"}, {"measurement": "Sexual behaviour, lordosis response", "setting": "[3]", "result": "facilitate"}, {"measurement": "Sexual arousal i.e. erections", "setting": "males [2]", "result": "increased"}]}
{"molecule": "CCC1(c2c[nH]cn2)Cc2ccccc2C1", "note": "[atipamezole, 4-(2-ethyl-2,3-dihydro-1H-inden-2-yl)-1H-imidazole]", "values": [{"measurement": "Sexual desire and arousal in female primates", "setting": "female Macaca arctoides", "result": "increases"}, {"measurement": "Copulations with ejaculation (FIG. 1A)", "setting": "female Macaca arctoides", "result": "failed to be statistically significant"}, {"measurement": "Copulations without ejaculation (FIG. 1B)", "setting": "female Macaca arctoides", "result": "failed to be statistically significant"}, {"measurement": "Total number of copulations, with and without ejaculation pooled (FIG. 1C)", "setting": "female Macaca arctoides", "result": "significant increase"}, {"measurement": "Number of short time mounts (FIG. 1D)", "setting": "female Macaca arctoides", "result": "dose-dependent increase"}, {"measurement": "Sexual activity (ejaculations produced by copulation and/or masturbation)", "setting": "males [4]", "result": "increase"}, {"measurement": "α2-/α1-adrenoceptor selectivity ratio", "setting": "α2-adrenoceptor", "result": "high"}, {"measurement": "Affinity for other neurotransmitter receptors (dopaminergic, GABAergic, serotonergic, benzodiazepine)", "setting": "[5]", "result": "negligible affinity"}]}
{"molecule": "c1ccc2c(c1)OCC(C1=NCCN1)O2", "note": "(centres unmarked) [Idazoxan]", "values": [{"measurement": "Affinity on 5-HT1A receptors or 5-HT1D receptors", "setting": "[1]", "result": "have affinity"}]}
{"molecule": "COc1ccc2c(c1)CCN1C[C@H]3CCCN(S(C)(=O)=O)[C@H]3C[C@@H]21", "note": "[deleguamine, delequamine]", "values": [{"measurement": "Sexual behaviour, lordosis response", "setting": "[3]", "result": "facilitate"}, {"measurement": "Affinity on 5-HT1A receptors or 5-HT1D receptors", "setting": "[1]", "result": "have affinity"}]}
{"molecule": "COC(=O)[C@@H]1[C@H]2C[C@H]3c4[nH]c5ccccc5c4CCN3C[C@@H]2CC[C@@H]1O", "note": "[yohimbine]", "values": [{"measurement": "Affinity for other neurotransmitter receptors (dopaminergic, GABAergic, serotonergic, benzodiazepine)", "setting": "[5]", "result": "has affinity"}]}
{"molecule": "COC1(C2=NCCN2)COc2ccccc2O1", "note": "(centres unmarked) [RX821002, 2-methoxy idazoxan]", "values": [{"measurement": "Affinity on 5-HT1A receptors or 5-HT1D receptors", "setting": "[1]", "result": "have affinity"}]}
{"molecule": "CCCc1nn(C)c2c(=O)[nH]c(-c3cc(S(=O)(=O)N4CCN(C)CC4)ccc3OCC)nc12", "note": "[sildenafil]", "values": [{"measurement": "Sexual function", "setting": "postmenopausal women", "result": "did not improve the sexual function significantly"}, {"measurement": "Sexual arousal i.e. erections", "setting": "males [2]", "result": "increase"}]}
